Laboratory results as given in patent EP4748847A1, “PEPTIDE COMPLEX HAVING VEGFR -2 AGONIST ACTIVITY” (Peptidream Inc, priority 2023, dated 2025).
*1 amine or outer side, *2 acyl side, *3 side chain or, on linkers, in order; H or OH if unused. Where a SMILES comes first, the peptide text is derived from it. Bridges are numbered along the chain shown (N, C = ends). Roman numbers before positions name the chains, in order. [ ]: non-standard residue; d: D form. CO(CH2)2(OCH2CH2)17CO = O=C(CCOCCOCCOCCOCCOCCOCCOCCOCCOCCOCCOCCOCCOCCOCCOCCOCCOCCC(=O)[*:2])[*:1]; X2 = O=C(OCCOCCOCCOCCOCCOCCOCCOCCOCCOCCOCCOCCOC(=O)[*:2])[*:1]; Phe(4-guanidino) = N=C(N)Nc1ccc(C[C@H](N)C(=O)O)cc1; Trp(7-aza) = N[C@@H](Cc1c[nH]c2ncccc12)C(=O)O; hTyr = N[C@@H](CCc1ccc(O)cc1)C(=O)O; h4Pal = N[C@@H](CCc1ccncc1)C(=O)O; tBuAla = CC(C)(C)C[C@H](N)C(=O)O; Chg = N[C@H](C(=O)O)C1CCCCC1; Tle = CC(C)(C)[C@H](N)C(=O)O

B1: Peptide complex Dimer Structure No. 25 (peptide)
peptide: {CH2CO}-WW[Chg]DVKDDLYF[hTyr]DCG-NH2
modifications: thioether N-14; not fully specified (residue 6); also: homodimer: Lys6 joined to Lys6 of second copy by cPEG17c (Linker Structure No. 4)

Columns and labels:
VEGFR-2 [1] = target: T1, VEGFR-2 (Homo sapiens, UniProt P35968); assay: pVEGFR AlphaLISA assay (VEGFR-2 phosphorylation, p-Tyr1175) in HUVECs; assay type: cell-based; conditions: 10 minutes stimulation, % activity, maximum VEGF165a signal = 100%, unstimulated = 0%
T1 construct: endogenous in cells; host or cells: HUVEC
T1 sequence (P35968 20-1356): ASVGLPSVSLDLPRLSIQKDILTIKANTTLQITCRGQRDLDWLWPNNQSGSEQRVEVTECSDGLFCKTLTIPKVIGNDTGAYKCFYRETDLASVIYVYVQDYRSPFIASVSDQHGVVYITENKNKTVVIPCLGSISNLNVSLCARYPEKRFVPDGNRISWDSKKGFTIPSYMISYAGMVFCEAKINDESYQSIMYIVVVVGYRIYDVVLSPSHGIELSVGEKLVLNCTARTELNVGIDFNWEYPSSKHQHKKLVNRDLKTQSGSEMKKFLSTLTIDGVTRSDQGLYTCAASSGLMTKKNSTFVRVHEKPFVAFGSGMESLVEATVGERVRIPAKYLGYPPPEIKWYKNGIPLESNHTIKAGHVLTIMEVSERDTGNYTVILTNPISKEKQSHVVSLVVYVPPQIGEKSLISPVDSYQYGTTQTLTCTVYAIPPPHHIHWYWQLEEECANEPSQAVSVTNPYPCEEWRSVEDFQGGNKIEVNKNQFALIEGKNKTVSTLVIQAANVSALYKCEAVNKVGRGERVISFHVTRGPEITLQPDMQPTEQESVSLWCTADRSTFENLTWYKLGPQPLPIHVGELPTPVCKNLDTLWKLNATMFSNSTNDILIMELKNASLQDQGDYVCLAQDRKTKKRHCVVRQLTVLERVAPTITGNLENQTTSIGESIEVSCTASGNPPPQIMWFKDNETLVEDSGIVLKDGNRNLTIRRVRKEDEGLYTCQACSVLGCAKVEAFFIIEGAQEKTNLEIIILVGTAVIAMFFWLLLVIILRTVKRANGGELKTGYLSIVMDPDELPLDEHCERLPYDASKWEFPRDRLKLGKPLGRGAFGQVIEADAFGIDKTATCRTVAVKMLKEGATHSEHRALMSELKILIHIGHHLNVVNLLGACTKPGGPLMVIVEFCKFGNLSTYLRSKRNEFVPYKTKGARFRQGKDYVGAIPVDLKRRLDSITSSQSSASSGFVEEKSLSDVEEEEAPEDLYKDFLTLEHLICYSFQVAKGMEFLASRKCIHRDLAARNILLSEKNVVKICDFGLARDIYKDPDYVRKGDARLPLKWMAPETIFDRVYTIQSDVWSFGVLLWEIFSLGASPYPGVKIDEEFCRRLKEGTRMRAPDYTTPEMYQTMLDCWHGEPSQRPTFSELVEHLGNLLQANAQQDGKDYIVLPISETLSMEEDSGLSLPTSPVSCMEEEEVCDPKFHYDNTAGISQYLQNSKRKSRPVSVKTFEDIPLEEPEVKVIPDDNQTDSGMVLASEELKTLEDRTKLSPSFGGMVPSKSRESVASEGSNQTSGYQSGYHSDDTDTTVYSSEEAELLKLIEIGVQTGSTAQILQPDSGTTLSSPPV
Experimental: To evaluate the VEGFR-2 activation ability of the VEGFR-2 agonist peptides of the present invention, VEGFR-2 phosphorylation was verified. HUVECs were cultured using EGM™ -2 Endothelial Cell Growth Medium-2 BulletKit (LONZA; CC-3162). After detaching cells using Tryple (Thermo Fisher Scientific), they were seeded into a 96-well PDL-coated plate (Corning: 354461) at a density of 24,000 cells per well and cultured for 2 days. For starvation, the medium was replaced with EBM-2 medium (LONZA) containing 0.5% FBS (Thermo Fisher Scientific), 0.1% heparin (included with the above LONZA CC-3162), and 0.1% gentamicin (Nacalai), and the cells were cultured for 18 hours. Subsequently, Recombinant Human VEGF165a Protein (R&D Systems) or the peptide was added, and the cells were cultured in a CO2 incubator at 37°C. After 10 minutes of stimulation, cells were lysed using the Lysis Buffer included in the AlphaLISA SureFire Ultra VEGFR-2 (p-Tyr1175) Assay Kit (PerkinElmer) to lyse the cells. The procedure was performed according to the kit protocol, and signal detection was performed using a SpectraMax Paradigm multimode microplate reader (Molecular Devices). The obtained signals were analyzed using GraphPad Prism, and % activity was calculated with the maximum signal induced by VEGF165a set as 100% and the unstimulated control as 0%.
The VEGF165a concentration was evaluated at five points (0.08, 0.31, 1.25, 5, 20 nM) using 1/4-fold dilutions starting from 20 nM to determine the maximum value (100%). Peptide concentrations tested were: 3.2, 16, 80 nM for dimer structure number 1; 10, 100 nM for dimer structures numbers 2-41; and 1.25, 5, 20 nM for dimer structures numbers 42-57. […]
Peptides showing 50% or more activity at 10 nM were designated 2-A, those showing 50% or more activity at 100 nM were designated 2-B, and those showing 1% or more but less than 50% activity at 100 nM were designated 2-C.
Peptides showing 50% or more activity at 1.25 nM were designated 3-A, those showing 50% or more activity at 5 nM were designated 3-B, those showing 50% or more activity at 20 nM were designated 3-C, and those showing 1% or more but less than 50% activity at 20 nM were designated 3-D.

VEGFR-2 [2] = target: T2, VEGFR-2 (human, UniProt P35968 20-1356); assay: cell-based or functional assay
T2 sequence (P35968 20-1356): as above

VEGFR-2 [3] = target: T2, VEGFR-2; assay: cell-based or functional assay; remark: listed apart in the source
[4] = peptide 1.25, 5, 20 nM (dimer structures 42-57)
[5] = peptide 10, 100 nM (dimer structures 2-41)

Row | Molecule | pVEGFR2 Assay Results (VEGFR-2 [1]; [4]) | pVEGFR2 Assay Results (VEGFR-2 [1]; [5]) | also measured
1 | CC(C)C[C@@H]1NC(=O)[C@H](CC(=O)O)NC(=O)[C@H](CC(=O)O)NC(=O)[C@H](CCCCNC(=O)CCOCCOCCOCCOCCOCCOCCOCCOCCOCCOCCOCCOCCOCCOCCOCCOCCOCCC(=O)NCCCC[C@@H]2NC(=O)[C@H](C(C)C)NC(=O)[C@H](CC(=O)O)NC(=O)[C@H](C(C)(C)C)NC(=O)[C@H](Cc3c[nH]c4ccccc34)NC(=O)[C@H](Cc3c[nH]c4ncccc34)NC(=O)CSC[C@@H](C(=O)NCC(N)=O)NC(=O)[C@H](CC(=O)O)NC(=O)[C@H](CCc3ccc(O)cc3)NC(=O)[C@H](Cc3ccccc3)NC(=O)[C@H](Cc3ccc(O)cc3)NC(=O)[C@H](CC(C)C)NC(=O)[C@H](CC(=O)O)NC(=O)[C@H](CC(=O)O)NC2=O)NC(=O)[C@H](C(C)C)NC(=O)[C@H](CC(=O)O)NC(=O)[C@H](C(C)(C)C)NC(=O)[C@H](Cc2c[nH]c3ccccc23)NC(=O)[C@H](Cc2c[nH]c3ncccc23)NC(=O)CSC[C@@H](C(=O)NCC(N)=O)NC(=O)[C@H](CC(=O)O)NC(=O)[C@H](CCc2ccc(O)cc2)NC(=O)[C@H](Cc2ccccc2)NC(=O)[C@H](Cc2ccc(O)cc2)NC1=O [compound 46] (I: {CH2CO}-[Trp(7-aza)]W[Tle]DVKDDLYF[hTyr]DCG-NH2 / II: {CH2CO}-[Trp(7-aza)]W[Tle]DVKDDLYF[hTyr]DCG-NH2; linker I:6-II:6 via CO(CH2)2(OCH2CH2)17CO; thioether I:N-I:14, II:N-II:14) | 3-C (50% or more activity at 20 nM) | – | –
2 | CC(C)C[C@@H]1NC(=O)[C@H](CC(=O)O)NC(=O)[C@H](CC(=O)O)NC(=O)[C@H](CCCCNC(=O)CCOCCOCCOCCOCCOCCOCCOCCOCCOCCOCCOCCOCCOCCOCCOCCOCCOCCC(=O)NCCCC[C@@H]2NC(=O)[C@H](C(C)C)NC(=O)[C@H](CC(=O)O)NC(=O)[C@H](C(C)(C)C)NC(=O)[C@H](Cc3c[nH]c4ccccc34)NC(=O)[C@H](Cc3c[nH]c4ccccc34)NC(=O)CSC[C@@H](C(=O)NCC(N)=O)NC(=O)[C@H](CC(=O)O)NC(=O)[C@H](CCc3ccc(O)cc3)NC(=O)[C@H](Cc3ccc(NC(=N)N)cc3)NC(=O)[C@H](Cc3ccc(O)cc3)NC(=O)[C@H](CC(C)C)NC(=O)[C@H](CC(=O)O)NC(=O)[C@H](CC(=O)O)NC2=O)NC(=O)[C@H](C(C)C)NC(=O)[C@H](CC(=O)O)NC(=O)[C@H](C(C)(C)C)NC(=O)[C@H](Cc2c[nH]c3ccccc23)NC(=O)[C@H](Cc2c[nH]c3ccccc23)NC(=O)CSC[C@@H](C(=O)NCC(N)=O)NC(=O)[C@H](CC(=O)O)NC(=O)[C@H](CCc2ccc(O)cc2)NC(=O)[C@H](Cc2ccc(NC(=N)N)cc2)NC(=O)[C@H](Cc2ccc(O)cc2)NC1=O [compound 45] (I: {CH2CO}-WW[Tle]DVKDDLY[Phe(4-guanidino)][hTyr]DCG-NH2 / II: {CH2CO}-WW[Tle]DVKDDLY[Phe(4-guanidino)][hTyr]DCG-NH2; linker I:6-II:6 via CO(CH2)2(OCH2CH2)17CO; thioether I:N-I:14, II:N-II:14) | 3-C (50% or more activity at 20 nM) | – | –
3 | CC(C)C[C@@H]1NC(=O)[C@H](CC(=O)O)NC(=O)[C@H](CC(=O)O)NC(=O)[C@H](CCCCNC(=O)CCOCCOCCOCCOCCOCCOCCOCCOCCOCCOCCOCCOCCOCCOCCOCCOCCOCCC(=O)NCCCC[C@@H]2NC(=O)[C@H](C(C)C)NC(=O)[C@H](CC(=O)O)NC(=O)[C@H](C(C)(C)C)NC(=O)[C@H](Cc3c[nH]c4ccccc34)NC(=O)[C@H](Cc3c[nH]c4ccccc34)NC(=O)CSC[C@@H](C(=O)NCC(N)=O)NC(=O)[C@H](CC(=O)O)NC(=O)[C@H](CCc3ccncc3)NC(=O)[C@H](Cc3ccccc3)NC(=O)[C@H](Cc3ccc(O)cc3)NC(=O)[C@H](CC(C)C)NC(=O)[C@H](CC(=O)O)NC(=O)[C@H](CC(=O)O)NC2=O)NC(=O)[C@H](C(C)C)NC(=O)[C@H](CC(=O)O)NC(=O)[C@H](C(C)(C)C)NC(=O)[C@H](Cc2c[nH]c3ccccc23)NC(=O)[C@H](Cc2c[nH]c3ccccc23)NC(=O)CSC[C@@H](C(=O)NCC(N)=O)NC(=O)[C@H](CC(=O)O)NC(=O)[C@H](CCc2ccncc2)NC(=O)[C@H](Cc2ccccc2)NC(=O)[C@H](Cc2ccc(O)cc2)NC1=O [compound 32] (I: {CH2CO}-WW[Tle]DVKDDLYF[h4Pal]DCG-NH2 / II: {CH2CO}-WW[Tle]DVKDDLYF[h4Pal]DCG-NH2; linker I:6-II:6 via CO(CH2)2(OCH2CH2)17CO; thioether I:N-I:14, II:N-II:14) | – | 2-A (50% or more activity at 10 nM) | –
4 | CC(C)C[C@@H]1NC(=O)[C@H](CC(=O)O)NC(=O)[C@H](CC(=O)O)NC(=O)[C@H](CCCCNC(=O)CCOCCOCCOCCOCCOCCOCCOCCOCCOCCOCCOCCOCCOCCOCCOCCOCCOCCC(=O)NCCCC[C@@H]2NC(=O)[C@H](C(C)C)NC(=O)[C@H](CCC(N)=O)NC(=O)[C@H](C(C)(C)C)NC(=O)[C@H](Cc3c[nH]c4ccccc34)NC(=O)[C@H](Cc3c[nH]c4ccccc34)NC(=O)CSC[C@@H](C(=O)NCC(N)=O)NC(=O)[C@H](CC(=O)O)NC(=O)[C@H](CCc3ccc(O)cc3)NC(=O)[C@H](Cc3ccccc3)NC(=O)[C@H](Cc3ccc(O)cc3)NC(=O)[C@H](CC(C)C)NC(=O)[C@H](CC(=O)O)NC(=O)[C@H](CC(=O)O)NC2=O)NC(=O)[C@H](C(C)C)NC(=O)[C@H](CCC(N)=O)NC(=O)[C@H](C(C)(C)C)NC(=O)[C@H](Cc2c[nH]c3ccccc23)NC(=O)[C@H](Cc2c[nH]c3ccccc23)NC(=O)CSC[C@@H](C(=O)NCC(N)=O)NC(=O)[C@H](CC(=O)O)NC(=O)[C@H](CCc2ccc(O)cc2)NC(=O)[C@H](Cc2ccccc2)NC(=O)[C@H](Cc2ccc(O)cc2)NC1=O [compound 26] (I: {CH2CO}-WW[Tle]QVKDDLYF[hTyr]DCG-NH2 / II: {CH2CO}-WW[Tle]QVKDDLYF[hTyr]DCG-NH2; linker I:6-II:6 via CO(CH2)2(OCH2CH2)17CO; thioether I:N-I:14, II:N-II:14) | – | 2-B (50% or more activity at 100 nM) | –
5 | CC(C)[C@@H]1NC(=O)[C@H](CC(=O)O)NC(=O)[C@H](CCc2ccc(O)cc2)NC(=O)[C@H](Cc2c[nH]c3ccccc23)NC(=O)[C@H](Cc2c[nH]c3ccccc23)NC(=O)CSC[C@@H](C(=O)NCC(N)=O)NC(=O)[C@H](CC(=O)O)NC(=O)[C@H](CCc2ccc(O)cc2)NC(=O)[C@H](Cc2ccc(NC(=N)N)cc2)NC(=O)[C@H](Cc2ccc(O)cc2)NC(=O)[C@H](CC(C)(C)C)NC(=O)[C@H](CC(=O)O)NC(=O)[C@H](CC(=O)O)NC(=O)[C@H](CCCCNC(=O)OCCOCCOCCOCCOCCOCCOCCOCCOCCOCCOCCOCCOC(=O)NCCCC[C@@H]2NC(=O)[C@H](C(C)C)NC(=O)[C@H](CC(=O)O)NC(=O)[C@H](CCc3ccc(O)cc3)NC(=O)[C@H](Cc3c[nH]c4ccccc34)NC(=O)[C@H](Cc3c[nH]c4ccccc34)NC(=O)CSC[C@@H](C(=O)NCC(N)=O)NC(=O)[C@H](CC(=O)O)NC(=O)[C@H](CCc3ccc(O)cc3)NC(=O)[C@H](Cc3ccc(NC(=N)N)cc3)NC(=O)[C@H](Cc3ccc(O)cc3)NC(=O)[C@H](CC(C)(C)C)NC(=O)[C@H](CC(=O)O)NC(=O)[C@H](CC(=O)O)NC2=O)NC1=O [compound 57] (I: {CH2CO}-WW[hTyr]DVKDD[tBuAla]Y[Phe(4-guanidino)][hTyr]DCG-NH2 / II: {CH2CO}-WW[hTyr]DVKDD[tBuAla]Y[Phe(4-guanidino)][hTyr]DCG-NH2; linker I:6-II:6 via X2; thioether I:N-I:14, II:N-II:14) | 3-D (1% or more but less than 50% activity at 20 nM) | – | –
6 | B1 | – | – | proliferation (HUVEC, CellTiter-Glo) (VEGFR-2 [2]): ≥ 50 % activity at 10 nM; pERK Assay Results (AlphaLISA p-Erk1/2, HUVEC) (VEGFR-2 [3]): ≥ 50 % activity at 10 nM
